According to EP4711356A1, “TETRAHYDROCARBAZOLE DERIVATIVE, PHARMACEUTICAL COMPOSITION, AND USE THEREOF” (Nain Biotech (Hangzhou) Co., Ltd., priority 2023, dated 2024):
pIC50: −log10 of the molar value.

These molecules were tested on HeLa cells (assay: Cell-based pharmacodynamic assay (CellTiter-Glo proliferation inhibition), HeLa). Conditions: human cervical cancer HeLa cells; 72 hours incubation; CellTiter-Glo luminescence; read-out: IC50 against HeLa cells.
Experimental: Complete media such as RPMI 1640 (Gibco, A1049101), EMEM (ATCC, 30-2003), DMEM (Gibco, C11995500CP), McCoy's 5A (Gibco, 16600082), and F-12K (ATCC, 30-2004) were prepared by supplementing with varying concentrations of FBS (Biological Industries, 04-002-1A) and 1% Penicillin-Streptomycin (Gibco, 15140122) and was thoroughly mixed. Tumor cell lines including HeLa (ATCC, CCL-2; EMEM + 10% FBS), TOV-21G (Cobioer, CBP60292; 1:1 mixture of MCDB 105 and Medium 199 + 15% FBS), OVCAR-3 (ATCC, HTB-161; RPMI 1640 + 20% FBS + 0.01 mg/ml bovine insulin), SK-OV-3 (ATCC, HTB-77; McCoy's 5A + 10% FBS), A2780 (Cobioer, CBP60283; RPMI 1640 + 10% FBS), OC316 (Cobioer, CBP60620; RPMI 1640 + 10% FBS), HuH-7 (Cobioer, CBP60202; DMEM + 10% FBS), SNU-398 (ATCC, CRL-2233; RPMI 1640 + 10% FBS), NCI-H2286 (ATCC, CRL-5938; RPMI 1640 + 5% FBS), NCI-H82 (ATCC, HTB-175; RPMI 1640 + 10% FBS), A549 (ATCC, CCL-185; F-12K + 10% FBS), SK-MEL-3 (ATCC, HTB-69; McCoy's 5A + 15% FBS), PSN-1 (Cobioer, CBP61215; RPMI 1640 + 10% FBS), LoVo (ATCC, CCL-229; F-12K + 10% FBS), DLD-1 (ATCC, CCL-221; RPMI 1640 + 10% FBS), HCT-15 (ATCC, CCL-225; RPMI 1640 + 10% FBS), A498 (ATCC, HTB-44; EMEM + 10% FBS), LNCaP (ATCC, CRL-1740; RPMI 1640 + 10% FBS), SNU-1 (ATCC, CRL-5971; RPMI 1640 + 10% FBS), SCC-9 (Cobioer, CBP60428; DMEM/F12 (1:1) + 10% FBS + 0.5 mM sodium pyruvate + 400 ng/ml hydrocortisone), SU-DHL-5 (ATCC, CRL-2958; RPMI 1640 + 10% FBS), Toledo (ATCC, CRL-2631; RPMI 1640 + 10% FBS), and SJCRH30 (ATCC, CRL-2061; RPMI 1640 + 10% FBS) were thawed. Cells were passaged approximately twice, and those in good growth condition (typically passages 4-6) were selected for experiments. The medium was aspirated, and the cells were washed once with 0.25% trypsin (Invitrogen, 25200-072). The waste liquid was discarded, and 3 mL of fresh trypsin was added to the culture flask for digestion. When the cells began to detach, 9 mL of complete medium was added to neutralize the trypsin digestion, and the mixture was gently mixed. The cell suspension was transferred to a centrifuge tube using a pipette and centrifuged at 1000 rpm for 5 minutes. The supernatant was discarded, and 5 mL of medium was added to the centrifuge tube to gently resuspend the cells evenly. The cell concentration was adjusted to 1×10^4/mL-3×10^4/mL using a cell counter (Beckman Coulter, Vi-cellTM XR). The cell suspension was added to a 96-well plate (Corning, 3903) at 100 µL/well. The plate was labeled with details such as cell name, seeding density, and date, and then placed in a CO2 incubator (Thermo, Thermo 3111) overnight. Test compounds were prepared as 20 mM stock solutions in DMSO (Sigma, D4540-1L) and added to the corresponding cell wells using an HPD300 automated dispenser according to the designed layout. The plates were incubated in a 37°C, 5% CO2 incubator for 72 hours. CellTiter-Glo Buffer was thawed at room temperature. The lyophilized CellTiter-Glo substrate was equilibrated to room temperature. The CellTiter-Glo Buffer was added to the CellTiter-Glo substrate and thoroughly mixed. The cell plates were removed and equilibrated to room temperature, and 50 µL of the mixed CellTiter-Glo reagent was added to each well. The plates were protected from light and shaken for 10 minutes, followed by incubation for 10 minutes. The plates were placed in an Enspire reader (luminescence measurement time: 0.5 s) to record luminescence results. The inhibition rate was calculated using the following formula: Inhibition rate (%) = (1 - (RLU_compound - RLU_blank) / (RLU_DMSO - RLU_blank)) × 100%. Dose-response curves were plotted using XLFit to calculate IC50 values. A four-parameter model was used: [fit = (A + ((B - A) / (1 + ((C/x) ^ D)))]. The test results for HeLa cells are shown in Table 1. Table 1: IC50 values of some test compounds against human cervical cancer HeLa cells

SMILES | pIC50
COc1ccc2[nH]c3c(c2n1)CCCC3=O [Compound B09] | ≥ 6.70
C#CCOCC(C)OC(=O)c1cccc2[nH]c3c(c12)CCCC3=O (racemic) [Compound B111] | ≥ 6.70
O=C1CCCc2c1[nH]c1cccc(C(=O)O[C@@H](CO)c3ccccc3)c21 [Compound B189] | ≥ 6.30
O=C1CCCc2c1[nH]c1cccc(C(=O)OC3CCC3)c21 [Compound B95] | ≥ 6.70
CCOC(=O)c1c(C)ccc2[nH]c3c(c12)CCCC3=O [Compound B117] | ≥ 6.70
CCC#CC(C)OC(=O)c1cccc2[nH]c3c(c12)CCCC3=O (racemic) [Compound B110] | ≥ 6.70
C[C@H](O)COC(=O)c1cccc2[nH]c3c(c12)CCCC3=O [Compound B150] | ≥ 6.70
O=C1CCCc2c1[nH]c1cccc(N3CCOCC3)c21 [Compound B63] | ≥ 6.70
CCC#Cc1cccc2[nH]c3c(c12)CCCC3=O [Compound B126] | ≥ 6.70
CCCCOC(=O)c1cccc2[nH]c3c(c12)CCCC3=O [Compound B25] | ≥ 6.70
O=C1CCCc2c1[nH]c1cccc(C(=O)OC(CO)CO)c21 [Compound B149] | ≥ 6.70
O=C1CCCc2c1[nH]c1cccc(C(=O)OCCC(F)(F)F)c21 [Compound B45] | ≥ 6.70
O=C1CCCc2c1[nH]c1cccc(N3CCCC3)c21 [Compound B66] | ≥ 6.70
O=C1CCCc2c1[nH]c1cccc(C(=O)Oc3ccccc3)c21 [Compound B39] | ≥ 6.30
O=C1CCCc2c1[nH]c1cccc(C(=O)OCc3ccccc3)c21 [Compound B34] | ≥ 6.30
CC(=O)c1cccc2[nH]c3c(c12)CCCC3=O [Compound B82] | ≥ 6.70
COC(=O)c1cccc2[nH]c3c(c12)CCCC3=O [Compound B10] | ≥ 6.70

SMILES | pIC50
C=C=Cn1cc(-c2cccc3[nH]c4c(c23)CCCC4=O)cn1 [Compound B173] | ≥ 6.70
COc1ccc2[nH]c3c(c2c1-c1cnn(C)n1)CCCC3=O [Compound B134] | ≥ 6.70
COC(=O)c1c(F)ccc2[nH]c3c(c12)CCCC3=O [Compound B85] | ≥ 6.70
[2H]C([2H])([2H])n1cc(-c2cccc3[nH]c4c(c23)CCCC4=O)cn1 [Compound B191] | ≥ 6.70
Cc1cc(COC(=O)c2cccc3[nH]c4c(c23)CCCC4=O)n[nH]1 [Compound B163] | ≥ 6.70
O=C1CCCc2c1[nH]c1cccc(-c3cnn(C(F)F)c3)c21 [Compound B156] | ≥ 6.70
Cc1ccc2[nH]c3c(c2n1)CCCC3=O [Compound B01] | ≥ 6.70
Cc1cc(-c2cccc3[nH]c4c(c23)CCCC4=O)ccn1 [Compound B97] | ≥ 6.30
Cc1nnc(-c2cccc3[nH]c4c(c23)CCCC4=O)o1 [Compound B70] | ≥ 6.70
O=C1CCCc2c1[nH]c1cccc(C3=CCOCC3)c21 [Compound B62] | ≥ 6.70
C#Cc1ccc2[nH]c3c(c2c1C(=O)OCC)CCCC3=O [Compound B153] | ≥ 6.70
CC1(COC(=O)c2cccc3[nH]c4c(c23)CCCC4=O)COC1 [Compound B140] | ≥ 6.70
CCOC(=O)c1cccc2[nH]c3c(c12)SCCC3=O [Compound B107] | ≥ 6.70
O=C1CCCc2c1[nH]c1cccc(N3CC[C@@H](CO)C3)c21 [Compound B193] | ≥ 6.70
CC(O)c1cccc2[nH]c3c(c12)CCCC3=O (stereo not shown) [Compound B105] | ≥ 6.30
COC(=O)c1cc(F)cc2[nH]c3c(c12)CCCC3=O [Compound B83] | ≥ 6.70

The next lines start with the values.

pIC50 | SMILES
≥ 6.30 | CCC(CO)N=C1CCCc2c1[nH]c1ccc(C)cc21 (stereo not shown) [Compound E63]
≥ 6.70 | CCN=C1CCCc2c1[nH]c1cccc(C(=O)OC)c21 [Compound E48]
≥ 6.70 | CCOC(=O)c1cccc2c1c1c(n2C(=O)c2ccc(Cl)cc2)C(=O)CCC1 [Compound C20]
≥ 6.70 | Cc1ccc2[nH]c3c(c2c1)CCCC3=NC1CCN(S(=O)(=O)C(C)C)CC1 [Compound E43]
≥ 6.70 | Cc1ccc2[nH]c3c(c2c1)CCCC3=NCC(=O)OC(C)(C)C [Compound E10]
≥ 6.70 | CCOC(=O)c1cccc2c1c1c(n2C(=O)C2CCN(C)CC2)C(=O)CCC1 [Compound C24]
≥ 6.70 | CCOC(=O)c1cccc2c1c1c(n2C(=O)CC2CCOCC2)C(=O)CCC1 [Compound C35]
≥ 6.70 | Cc1ccc2[nH]c3c(c2c1)CCCC3=NCCNC(=O)OC(C)(C)C [Compound E67]
≥ 6.70 | CCOC(=O)c1cccc2c1c1c(n2C(=O)CCCN(C)C)C(=O)CCC1 [Compound C50]
≥ 6.30 | Cc1ccc2[nH]c3c(c2c1)CCCC3=NC(CO)C(C)C (racemic) [Compound E02]
≥ 6.70 | CCOC(=O)c1cccc2c1c1c(n2C(=O)c2ccc(OC)cc2)C(=O)CCC1 [Compound C21]
≥ 6.70 | CCC(CO)N=C1CCCc2c1[nH]c1cccc(C(=O)OC)c21 (racemic) [Compound E58]
≥ 6.70 | Cc1ccc2[nH]c3c(c2c1)CCCC3=NC(CO)CO [Compound E14]
≥ 6.70 | COC(=O)c1ccc2[nH]c3c(c2c1)CCCC3=NCC(=O)OC(C)(C)C [Compound E34]
≥ 6.70 | Cc1ccc2[nH]c3c(c2c1)CCCC3=NC(CC(N)=O)C(=O)OC(C)(C)C (stereo not shown) [Compound E39]
≥ 6.70 | CCOC(=O)c1cccc2c1c1c(n2C(=O)C2CCOCC2)C(=O)CCC1 [Compound C17]
≥ 6.70 | CCOC(=O)c1cccc2c1c1c(n2C(=O)c2ccc(C)cn2)C(=O)CCC1 [Compound C27]
≥ 6.70 | CCOC(=O)c1cccc2c1c1c(n2C(=O)c2ccc(C)cc2)C(=O)CCC1 [Compound C23]
≥ 6.70 | Cc1ccc2[nH]c3c(c2n1)CCCC3=NCCO [Compound E50]
≥ 6.70 | COC(=O)c1cccc2[nH]c3c(c12)CCCC3=NC(C)C(F)(F)F (stereo not shown) [Compound E69]
≥ 6.70 | CCOC(=O)c1cccc2c1c1c(n2C(=O)C2CC3(CC(C(=O)O)C3)C2)C(=O)CCC1 (stereo not shown) [Compound C56]
≥ 6.70 | CCOC(=O)c1cccc2c1c1c(n2C(=O)/C=C/C(=O)OC)C(=O)CCC1 [Compound C15]
≥ 6.70 | Cc1ccc2[nH]c3c(c2c1)CCCC3=NCCNCCO [Compound E11]
≥ 6.70 | CCOC(=O)c1cccc2c1c1c(n2C(=O)/C=C/c2ccc(O)c(OC)c2)C(=O)CCC1 [Compound C29]
≥ 6.70 | Cc1ccc2[nH]c3c(c2c1)CCCC3=NC1CCN(CC(F)(F)F)CC1 [Compound E42]
≥ 6.70 | CCOC(=O)c1cccc2c1c1c(n2C(=O)C2CCOC(C)(C)C2)C(=O)CCC1 (racemic) [Compound C37]
≥ 6.70 | COC(=O)c1cccc2[nH]c3c(c12)CCCC3=NCC(C)(C)O [Compound E61]
≥ 6.70 | CCOC(=O)c1cccc2c1c1c(n2C(=O)C2(C)CCOCC2)C(=O)CCC1 [Compound C45]
